Measurements from US20260176254A1, “INHIBITORS OF PROSTATE SPECIFIC MEMBRANE ANTIGEN AND USE THEREOF” (SHANGHAI SINOTAU BIOTECH. CO., LTD, priority 2023, published 2026).

Target: T1, recombinant human PSMA (rhPSMA) (Homo sapiens, UniProt Q04609)
T1 construct: purchased Sino Biological
Assay: Naaladase assay (fluorescence-based Naaladase activity inhibition)
Type: biochemical
Details: rhPSMA 0.4 μg/mL, substrate N-Acetyl-Asp-Glu 40 μM, 37° C. one hour
Method: Naaladase activity inhibition was determined using a fluorescence-based assay. Briefly, the solution containing the substrate N-Acetyl-Asp-Glu (Sigma-Aldrich) at 40 μM and the compound at concentrations from 0.15 nM to 1000 nM was mixed at equal volume with recombinant human PSMA (rhPSMA, Sino Biological) at 0.4 μg/mL, in assay buffer (50 mM HEPES, 100 mM NaCl, pH 7.5). The enzymatic reaction was proceeded by incubation at 37° C. for one hour and then stopped by heating at 95° C. for 5 minutes. A solution of 15 mM ortho-phthaldialdehyde (Sigma-Aldrich) was added to all vials and incubated for 10 min at ambient temperature. The reaction solutions were loaded onto a 96-well flat clear bottom black microplates (Corning) and read at excitation and emission wavelengths of 330 and 450 nm, respectively, using a microplate reader (Tecan). The data were analyzed by a one-site total binding regression algorithm of GraphPad Prism (GraphPad Software).

T1 sequence (Q04609 whole entry): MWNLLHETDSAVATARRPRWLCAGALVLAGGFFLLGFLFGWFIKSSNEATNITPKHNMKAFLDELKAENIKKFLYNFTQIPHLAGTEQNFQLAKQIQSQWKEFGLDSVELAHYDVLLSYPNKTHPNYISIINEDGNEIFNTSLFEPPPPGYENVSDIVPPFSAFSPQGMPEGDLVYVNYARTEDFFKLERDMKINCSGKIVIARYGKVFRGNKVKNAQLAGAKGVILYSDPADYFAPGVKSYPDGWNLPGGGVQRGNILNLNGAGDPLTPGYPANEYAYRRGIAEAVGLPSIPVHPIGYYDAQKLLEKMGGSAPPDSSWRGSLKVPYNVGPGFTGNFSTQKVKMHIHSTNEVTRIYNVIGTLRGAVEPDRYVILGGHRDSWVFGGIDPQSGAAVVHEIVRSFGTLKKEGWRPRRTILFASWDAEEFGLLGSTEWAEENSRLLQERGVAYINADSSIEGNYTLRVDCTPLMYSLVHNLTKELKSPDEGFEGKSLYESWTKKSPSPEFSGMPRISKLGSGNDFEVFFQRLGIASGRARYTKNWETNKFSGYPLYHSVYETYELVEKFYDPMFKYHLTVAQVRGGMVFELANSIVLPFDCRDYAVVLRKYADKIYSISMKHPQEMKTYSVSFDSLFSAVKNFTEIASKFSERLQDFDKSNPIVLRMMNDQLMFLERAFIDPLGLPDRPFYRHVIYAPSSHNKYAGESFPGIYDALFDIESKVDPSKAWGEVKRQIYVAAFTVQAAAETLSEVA

SMILES: NC(=O)CN1CCN(CC(=O)O)CCN(Cc2nnc(C34CCC(Nc5c(N[C@@H](Cc6c7ccccc7cc7ccccc67)C(=O)NCCCC[C@H](NC(=O)N[C@@H](CCCC(=O)O)C(=O)O)C(=O)O)c(=O)c5=O)(CC3)CC4)o2)CCN(CC(=O)O)CC1 [E20]
- IC50: 1.8 nM
